Where a name gives a salt, the structure may show the parent alone. Bounds are passed on as bounds.

This note sets out measurements from ChEMBL document CHEMBL1137798, “Evaluation of natural products as inhibitors of human immunodeficiency virus type 1 (HIV-1) reverse transcriptase” (J Nat Prod, 1991).

The first test deals with T1, Human immunodeficiency virus type 1 reverse transcriptase (Human immunodeficiency virus 1, UniProt Q72547). The test is described as follows: Inhibition of HIV1 RT using poly A oligo(dT) template primer.
Settings: not given
By IC50 is commonly meant the midpoint of a concentration-inhibition curve. Compound `COc1cc2c(ccc3c4cc(OC)c(OC)cc4c[n+](C)c23)cc1O` [FAGARONINE] gave an IC50 of 25.9 µM.
Compound `COc1cc2c[n+](C)c3c4cc5c(cc4ccc3c2cc1OC)OCO5` [NITIDINE CHLORIDE] had an IC50 of 128 µM.

The target in the next test is Human immunodeficiency virus type 1 reverse transcriptase (Human immunodeficiency virus 1) (UniProt Q72547). In words: Inhibition of HIV1 RT at 200 ug/ml.
Settings: not given
Usually inhibition stands for the relative decrease from the control value, in per cent. High values mean strong suppression, low ones little suppression. In the case of `C/C=C1/C[N+]2(C)CC[C@@]34c5ccccc5N[C@]32CCC1C4(CO)C(=O)OC` (stereo not given in full) [ECHITAMINE CHLORIDE], the inhibition is less than 10%.
In turn, `CC[C@H]1CN2CCc3cc(OC)c(OC)cc3[C@@H]2C[C@@H]1C[C@H]1NCCc2cc(O)c(OC)cc21` [CEPHAELINE DIHYDROCHLORIDE] yielded an inhibition of 20%.
Still for that read-out and setting: then `CC[C@H]1CN2CCc3cc(OC)c(OC)cc3[C@@H]2C[C@@H]1CC1=NCCc2cc(O)c(OC)cc21` [PSYCHOTRINE], with 20%.

In the next test the target is T1, Human immunodeficiency virus type 1 reverse transcriptase. The conditions noted are these: read-out: IC50 (converted).
With `COc1cc2c(ccc3c4cc(OC)c(OC)cc4c[n+](C)c23)cc1O` [FAGARONINE], the IC50 was 46.7 µM.
In the case of `C/C=C1/C[N+]2(C)CC[C@@]34c5ccccc5N[C@]32CCC1C4(CO)C(=O)OC` (stereo not given in full) [ECHITAMINE CHLORIDE], the IC50 was more than 494 µM.
Take `CC[C@H]1CN2CCc3cc(OC)c(OC)cc3[C@@H]2C[C@@H]1C[C@H]1NCCc2cc(O)c(OC)cc21` [CEPHAELINE DIHYDROCHLORIDE]: the IC50 is more than 371 µM.
On the same count and under the same terms, for `CC[C@H]1CN2CCc3cc(OC)c(OC)cc3[C@@H]2C[C@@H]1CC1=NCCc2cc(O)c(OC)cc21` [PSYCHOTRINE] the value was more than 430 µM.
Same read-out and setting: for `COc1cc2c[n+](C)c3c4cc5c(cc4ccc3c2cc1OC)OCO5` [NITIDINE CHLORIDE] the value was less than 130 µM.
